According to the CombiSolv-Exp solvation set (Vermeire and Green 2021):
Each block holds one molecule with its values, some of them ahead of it.

Test: solvent given as SMILES
[1] = in CCCCCCCCC=CCCCCCCCC(=O)OCC(COC(=O)CCCCCCCC=CCCCCCCCC)OC(=O)CCCCCCCC=CCCCCCCCC
[2] = in CC(C)CCCC(C)CCCC(C)CCCCC(C)CCCC(C)CCCC(C)C

SMILES: c1ccc2c(c1)sc1ccccc12
solvation free energy, 298 K (in CC(=O)N(C)C): -11.5 kcal/mol
solvation free energy, 298 K [1]: -10.6 kcal/mol
solvation free energy, 298 K (in CN1CCCC1=O): -11.6 kcal/mol
solvation free energy, 298 K (in O): -4.05 kcal/mol

SMILES: CCCCCCCCCCCCc1ccccc1
solvation free energy, 298 K (in CCC(C)=O): -11.5 kcal/mol
solvation free energy, 298 K (in CCCCCCC): -11.8 kcal/mol
solvation free energy, 298 K (in CCO): -10 kcal/mol
solvation free energy, 298 K (in O=Cc1ccco1): -10.4 kcal/mol
solvation free energy, 298 K (in OCCOCCO): -7.69 kcal/mol

SMILES: Clc1ccc(-c2cc(Cl)c(Cl)c(Cl)c2Cl)cc1
solvation free energy, 298 K (in CCCCCCCCO): -12.8 kcal/mol

SMILES: O=S1OCC2C(CO1)C1(Cl)C(Cl)=C(Cl)C2(Cl)C1(Cl)Cl (centres undefined)
solvation free energy, 298 K (in CCCCCCCCO): -13 kcal/mol

SMILES: OCCOCCOCCO
solvation free energy, 298 K (in CCCCCCC): -7.04 kcal/mol

SMILES: CCCCI
solvation free energy, 298 K (in ClC(Cl)(Cl)Cl): -5.57 kcal/mol
solvation free energy, 298 K (in O): -0.25 kcal/mol

SMILES: C=C(C)C1CC=C(C=O)CC1 (centres undefined)
solvation free energy, 298 K (in O): -4.09 kcal/mol

SMILES: ClCCBr
solvation free energy, 298 K (in O): -1.95 kcal/mol

SMILES: COCCOC(=O)c1ccccc1C(=O)OCCOC
solvation free energy, 298 K (in O): -13.5 kcal/mol

SMILES: CCF
solvation free energy, 298 K (in C1CCOC1): -1.79 kcal/mol
solvation free energy, 298 K (in CCCCCCC): -1.45 kcal/mol
solvation free energy, 298 K (in CN1CCCC1=O): -1.86 kcal/mol
solvation free energy, 298 K (in CN(C)C=O): -1.95 kcal/mol
solvation free energy, 298 K (in O): 0.41 kcal/mol

SMILES: OC1CCCCCC1
solvation free energy, 298 K (in O): -5.48 kcal/mol

SMILES: CC1=CCC(=C(C)C)CC1
solvation free energy, 298 K (in O): 0.16 kcal/mol

SMILES: O=C(O)CCCCC(=O)O
solvation free energy, 298 K (in CC(C)(C)O): -13.7 kcal/mol
solvation free energy, 298 K (in CC(C)=O): -13.1 kcal/mol
solvation free energy, 298 K (in CC(C)O): -13.5 kcal/mol
solvation free energy, 298 K (in CCCCO): -13.2 kcal/mol
solvation free energy, 298 K (in CCCO): -13.7 kcal/mol
solvation free energy, 298 K (in CCO): -13.7 kcal/mol
solvation free energy, 298 K (in CO): -14 kcal/mol
solvation free energy, 298 K (in O): -12.9 kcal/mol
solvation free energy, 298 K (in O=C1CCCCC1): -12.9 kcal/mol

SMILES: Brc1c(Br)c(Br)c(Br)c(Br)c1Br
solvation free energy, 298 K [1]: -12.7 kcal/mol
solvation free energy, 298 K (in O): -3.08 kcal/mol

SMILES: OCC(F)(F)F
solvation free energy, 298 K (in C1COCCO1): -5.63 kcal/mol
solvation free energy, 298 K (in CC(=O)N(C)C): -6.81 kcal/mol
solvation free energy, 298 K (in CN(C)C=O): -6.93 kcal/mol
solvation free energy, 298 K (in O): -4.31 kcal/mol

SMILES: O=C1NC(=O)C(c2ccccc2)(c2ccccc2)N1
solvation free energy, 298 K (in O): -16.7 kcal/mol

SMILES: CCCN(CCC)c1c([N+](=O)[O-])cc(S(C)(=O)=O)cc1[N+](=O)[O-]
solvation free energy, 298 K (in O): -7.98 kcal/mol

SMILES: Clc1ccc(-c2ccc(Cl)cc2Cl)cc1
solvation free energy, 298 K (in CCCCCCCCO): -10.7 kcal/mol
solvation free energy, 298 K (in O): -2.77 kcal/mol

Second part, the molecule after the results:

solvation free energy, 298 K (in O): -10.6 kcal/mol
SMILES: CCNc1nc(NCC)nc(OC)n1

solvation free energy, 298 K (in NC=O): -4.37 kcal/mol
solvation free energy, 298 K (in O): -2.08 kcal/mol
SMILES: CCCCCCCCC=O

solvation free energy, 298 K (in O): -11.2 kcal/mol
SMILES: Cc1ccccc1C(=O)N(O)c1ccccc1C

solvation free energy, 298 K (in CCCCOCCCC): -5.6 kcal/mol
solvation free energy, 298 K (in CO): -5.77 kcal/mol
solvation free energy, 298 K (in O): -2.92 kcal/mol
SMILES: CCCC(=O)CCC

solvation free energy, 298 K (in C=CCCCCCCCCCCCCCC): -3.59 kcal/mol
solvation free energy, 298 K (in O): 1.53 kcal/mol
SMILES: C=CCC(C)(C)C

solvation free energy, 298 K (in C=CCCCCCCCCCCCCCC): -1.95 kcal/mol
solvation free energy, 298 K (in CC(=O)N(C)C): -3.41 kcal/mol
solvation free energy, 298 K (in CCCCCCCCCCCCCCCC): -1.94 kcal/mol
solvation free energy, 298 K (in CCCCN(C=O)CCCC): -2.97 kcal/mol
solvation free energy, 298 K (in CCOCCO): -3.08 kcal/mol
solvation free energy, 298 K (in CN1CCCC1=O): -3.71 kcal/mol
solvation free energy, 298 K (in CNC(C)=O): -3.15 kcal/mol
solvation free energy, 298 K (in CS(C)=O): -3.28 kcal/mol
solvation free energy, 298 K (in NC=O): -3.07 kcal/mol
solvation free energy, 298 K (in O): -2.78 kcal/mol
solvation free energy, 298 K (in [2H]O[2H]): -2.82 kcal/mol
SMILES: COC=O

solvation free energy, 298 K (in O): -2.01 kcal/mol
SMILES: COC(C)C

solvation free energy, 298 K (in O): -1.06 kcal/mol
SMILES: C=CC(C)=CCC=C(C)CCC=C(C)C

solvation free energy, 298 K (in O): -4.2 kcal/mol
SMILES: CCC(C)(O)CC

solvation free energy, 298 K (in C1CCOC1): -4.42 kcal/mol
solvation free energy, 298 K (in C=CCCCC): -3.65 kcal/mol
solvation free energy, 298 K (in C=CCCCCCCCCCCCCCC): -3.15 kcal/mol
solvation free energy, 298 K (in CC(C)CC(C)(C)C): -3.45 kcal/mol
solvation free energy, 298 K [2]: -3.09 kcal/mol
solvation free energy, 298 K (in CCCCCCCC): -3.23 kcal/mol
solvation free energy, 298 K (in CCCCCCCCCCCCCCCC): -3.18 kcal/mol
solvation free energy, 298 K (in CCCCCCCCO): -4.64 kcal/mol
solvation free energy, 298 K (in CCCCCO): -3.7 kcal/mol
solvation free energy, 298 K (in CCOC(C)=O): -4.33 kcal/mol
solvation free energy, 298 K (in CN1CCCC1=O): -4.16 kcal/mol
solvation free energy, 298 K (in CO): -4.34 kcal/mol
solvation free energy, 298 K (in NC=O): -3.52 kcal/mol
solvation free energy, 298 K (in O): -3.12 kcal/mol
solvation free energy, 298 K (in O=CN1CCOCC1): -3.94 kcal/mol
solvation free energy, 298 K (in [2H]O[2H]): -3.11 kcal/mol
SMILES: CCCC=O

solvation free energy, 298 K (in O): -4.28 kcal/mol
SMILES: CCCCC(C)O (centres undefined)

solvation free energy, 298 K (in O): 0.53 kcal/mol
SMILES: CC1=C(C)C2CCC1C2

solvation free energy, 298 K (in O): -4.33 kcal/mol
SMILES: CCc1ccccn1

solvation free energy, 298 K (in O): 0.78 kcal/mol
SMILES: CC1=CC2C(CC1)C2(C)C (centres undefined)

solvation free energy, 298 K [2]: -4.99 kcal/mol
solvation free energy, 298 K (in CCCCCC): -5.36 kcal/mol
solvation free energy, 298 K (in CCCCCCC): -5.22 kcal/mol
solvation free energy, 298 K (in CCCCCCCC): -5.25 kcal/mol
solvation free energy, 298 K (in CCCCCCCCCC): -5.18 kcal/mol
solvation free energy, 298 K (in CCCCCCCCCCCCCCCC): -5.06 kcal/mol
solvation free energy, 298 K (in CCCCCCCCO): -5.65 kcal/mol
solvation free energy, 298 K (in CCCCOCCCC): -5.73 kcal/mol
solvation free energy, 298 K (in CO): -5.98 kcal/mol
solvation free energy, 298 K (in NC=O): -4.75 kcal/mol
solvation free energy, 298 K (in O): -3.09 kcal/mol
solvation free energy, 298 K (in [2H]O[2H]): -3.07 kcal/mol
SMILES: CCCCCC(C)=O

solvation free energy, 298 K (in O): -19.6 kcal/mol
SMILES: COc1ncnc(NS(=O)(=O)c2ccc(N)cc2)c1OC
